Measured values from US9994566B2, “Compound of 5-hydroxyl-1,7-naphthyridine substituted by aryl or heteroaryl, preparation method thereof and pharmaceutical use thereof” (SHENYANG SUNSHINE PHARMACEUTICAL CO. LTD., priority 2015, dated 2018).
“And” between values parts separate entries of the source, which are not always exact repeats. Equal entries are not always repeated.

What was measured:
[1] = tested on: male Balb/c mice; test: Effect on increasing erythrocyte of normal mice: reticulocyte (RETIC) count; type: in vivo; settings: four hours after the last administration; for RETIC, individual mice (Mice No. 1-8): one value per mouse; for RETIC, Average: orbital blood
Protocol: Biological Example 3: Effect of the Compounds of the Present Invention on Increasing Erythrocyte of Normal Mice
80 male Balb/c mice were divided into 11 groups, with 8 animals for each drug group, 10 animals for blank control group. Drug group: AKB-6548, 100 mg/kg, oral administration, once a day×3; FG-4592, 25 mg/kg, oral administration, once a day×3; EPO, 100 IU/kg, Day 1 and Day 3, subcutaneous injection, as positive control groups. Each of the compounds of the present invention was orally administrated at 25 mg/kg, once a day×3. Four hours after the last administration, orbital blood of all animals were collected and treated with EDTA-K2 anticoagulant, and reticulocytes (RETIC) were counted with a blood cell automated analyzer.

[2] = tested on: hepatoma cells Hep3B; test: Promotion of erythropoietin (EPO) expression in hepatoma cells Hep3B in vitro (ELISA); type: cell-based, Human; settings: Hep3B supernatant, 24 hours, test doses 100 μmol/L and 10 μmol/L (dose of the tabulated value not given)
Text: Biological Example 1: Development and Screening of In Vitro Detection Methods: Promotion of Erythropoietin Expression in Hepatoma Cells Hep3B In Vitro by HIF-PHD2 Inhibitor Compounds
The complete medium for culture of Experimental hepatoma cells Hep3B (China Center for Type Culture Collection, CCTCC) was MEM (Cat# GNM 41500, GIBCO, provided by Hangzhou Genom Biopharmaceutical Technology Co., Ltd) supplemented with 10% serum FBS (Cat#10099-141, GIBCO) and 1% P/S (Cat#GNM15140, provided by Hangzhou Genom Biopharmaceutical Technology Co., Ltd). Cells were cultured in a 37° C., 5% CO2 incubator. Experimental reagents included dimethyl sulfoxide (for molecular biology, >=99.9%, Catalog # D8418) purchased from Sigma. The ELISA kit was purchased from Quantikine IVD ELISA, Human Erythropoietin (R&D, DEP00). The test control AKB-6548 was prepared by the inventors or obtained by commercial purchase. The test substance was stored at −20° C. in the dark.
The test substance and the positive control substance were fully dissolved in sterile water or dimethylsulfoxide under dark conditions and prepared into a stock solution at a concentration of 10^−1 mol/L or 10^−2 mol/L. Each of the stock solutions was stored at −20° C. MEM medium containing 0.5% FBS was used as a diluent to dilute the stock solution of the test substance, to prepare a diluted test substance at a concentration of 100 μmol/L and 10 μmol/L. To a 96-well culture plate was added 200 μl/well (1.5 or 2.0×10^4 cells/well) of hepatoma cells Hep3B complete medium suspension and incubated overnight at 37° C. in a 5% CO2 incubator. The solution in the 96-well culture plate was removed and the cells were washed once with the MEM medium containing 0.5% FBS. 200 μl/well of the test substance was added in the dark, at a dose of 100 μmol/L and 10 μmol/L, and each dose set 2 wells, a test well and a spare well. A cell control well was prepared by replacing the test solution with the diluent (without test substance and solvent). A solvent control well was prepared by replacing the test solution with the diluent containing the corresponding concentration of solvent (dimethylsulfoxide) (without test substance). They were cultured in a 5% CO2 incubator at 37° C. for 24 hours. The supernatant was absorbed as a sample and cryopreserved at −20° C. for use. 100 μl/well of stop solution was added. OD value was detected by microplate reader A450 nm-A600 nm. The expression level of EPO (mIU/mL) promoted by the test substance was obtained according to the standard curve.

[3] = target: HIF Prolyl hydroxylases 2 (PHD2) (Homo sapiens, UniProt Q9GZT9); test: PHD2 inhibition, fluorescence polarization (FP) detection of HIF-1α / VBC complex interaction; type: biochemical; settings: PHD2 0.5 μg/μl, FAM-HIF (556-575) 1 μM, 30 minutes room temperature
Protocol: The interaction between hypoxia-inducible factor HIF-1α and VBC complex (von Hippel-Lindau protein-Elongin B-Elongin C, VBC) was detected by Fluorescence polarization (FP) method, to measure the enzyme inhibitory activity of the HIF Prolyl hydroxylases 2 (PHD2) inhibitor compounds.
Subsequently, the desired concentration of the test compound or the positive compound was added (the compound was replaced by the buffer in the negative control and the positive control). Finally, PHD2 was added at a final concentration of 0.5 μg/μl (PHD2 was replaced by the buffer in the negative control). They were mixed well and allowed to stand at room temperature for 30 minutes in the dark followed by 95° C. water bath for 1 minute, and then the reaction was terminated. After the temperature drops to room temperature, the sample was prepared well for use. EBC buffer (50 mM Tris.HCl, 120 mM NaCl, 0.5% NP-40) was added to the corresponding wells of a black 96-well test plate. A GST-VBC complex was added to the corresponding test wells at a final concentration of 300 nM (using the wells containing only EBC buffer as blank wells). Subsequently, the corresponding PHD2 prolyl hydroxylation reaction sample was added in the dark as a substrate with a final concentration of 100 nM. After mixing well, the lateral and longitudinal fluorescence intensity values were measured using a full-wavelength multifunctional microplate reader (TECAN infinite M1000) at an excitation wavelength of […] and an emission wavelength of 518 nm.
The fluorescence polarization (mP) was calculated: mP=1000×(lateral value−G factor×longitudinal value)/(lateral value+G factor×longitudinal value) wherein, lateral value=lateral fluorescence intensity value of test well−lateral fluorescence intensity value of blank well, longitudinal value=longitudinal fluorescence intensity value of test well−longitudinal fluorescence intensity value of blank well, […]
The IC50 was calculated using the non-linear regression data analysis method of Graphpad Prism 4.0 software ([…]).

[4] = 100 IU/kg, subcutaneous injection, Day 1 and Day 3

Sequence of HIF Prolyl hydroxylases 2 (PHD2) (Q9GZT9 whole entry, species assumed): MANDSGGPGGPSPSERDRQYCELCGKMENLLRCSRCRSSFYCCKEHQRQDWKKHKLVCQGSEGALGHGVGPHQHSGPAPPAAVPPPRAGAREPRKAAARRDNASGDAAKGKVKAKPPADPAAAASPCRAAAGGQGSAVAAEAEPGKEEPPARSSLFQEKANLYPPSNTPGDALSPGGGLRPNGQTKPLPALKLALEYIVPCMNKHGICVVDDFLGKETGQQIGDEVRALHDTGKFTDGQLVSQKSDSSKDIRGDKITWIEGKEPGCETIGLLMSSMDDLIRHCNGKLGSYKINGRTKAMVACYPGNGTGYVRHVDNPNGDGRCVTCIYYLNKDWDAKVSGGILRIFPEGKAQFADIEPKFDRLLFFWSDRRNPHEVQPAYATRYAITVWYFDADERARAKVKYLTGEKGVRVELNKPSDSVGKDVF

Compound	IC50 [3] [µM]	RETIC, individual mice (Mice No. 1-8) ([1]; 25 mg/kg, oral, once a day × 3)	RETIC, Average ([1]; 25 mg/kg, oral, once a day × 3)	EPO level of the test substance [2] [mIU/mL]	other results
Cc1nc(C(=O)NCC(=O)O)c(O)c2ccc(Oc3ccccc3)cc12 [FG-4592, reference compound]	–	–	3.73	0.378	RETIC, individual mice (Mice No. 1-8) ([1]; 25 mg/kg, oral, once a day × 3, listed as FG-4592-A): 3.6 and 3.8 (2×) and 4 (2×) and 3.5 and 4.4 and 3.4
EPO: erythropoietin, glycoprotein hormone; positive control given by subcutaneous injection	–	–	–	–	RETIC, individual mice (Mice No. 1-8) [1, 4]: 5 and 5.9 and 2.5 and 2.2 (2×) and 2.6 and 4.3 and 5.1; RETIC, Average [1, 4]: 3.73
N#Cc1ccc(-c2cnc(C(=O)NCC(=O)O)c(O)c2)cc1 [AKB-6548, reference compound]	–	–	–	0.13	RETIC, individual mice (Mice No. 1-8) ([1]; 100 mg/kg, oral, once a day × 3, listed as AKB-6548-A): 5.3 (2×) and 6.1 and 4 (2×) and 4.2 (2×) and 4.9; RETIC, Average ([1]; 100 mg/kg, oral, once a day × 3): 4.75
O=C(O)CNC(=O)c1ncc2nc(-c3cccc(Cl)c3)ccc2c1O [Compound 6, 2-{5-hydroxy-[2-(3-chloro)-phenyl]-[1,7]-naphthyridine-6-formamido} acetic acid]	0.41	5.2 (2×) and 4.8 and 6.3 and 4.7 and 6.4 and 3.9 and 5.4	5.24	2.268	–

Now from value to compound, other results behind:

IC50 [3] [µM]	Compound	RETIC, individual mice (Mice No. 1-8) ([1]; 25 mg/kg, oral, once a day × 3)	RETIC, Average ([1]; 25 mg/kg, oral, once a day × 3)	EPO level of the test substance [2] [mIU/mL]	other results
7.7	COc1cccc(-c2ccc3c(O)c(C(=O)NCC(=O)O)ncc3n2)c1 [Compound 15]	4.9 (3×) and 4.6 and 4.1 and 3.7 and 3.8 and 3.1	4.25	6.316	–
10	O=C(O)CNC(=O)c1ncc2nc(-c3cccc4ccccc34)ccc2c1O [Compound 14, [(5-hydroxy-2-(naphthalene-1-yl)-[1,7]naphthyridine-6-carbonyl)-amino]-acetic acid]	4 (3×) and 3.8 and 4.1 and 5.8 and 3.4 and 4.3	4.18	5.435	–
5.2	O=C(O)CNC(=O)c1ncc2nc(-c3ccc(C(F)(F)F)cc3)ccc2c1O [Compound 23, 2-{5-hydroxy-[2-(4-trifluoromethyl)-phenyl]-[1,7]-napthyridine-6-formamido} acetic acid]	2.9 and 3.2 (3×) and 3 and 5.1 and 9.1	4.24	0.72	–
5.7	O=C(O)CNC(=O)c1ncc2nc(-c3cccs3)ccc2c1O [Compound 18]	–	–	8.888	–
18	O=C(O)CNC(=O)c1ncc2nc(-c3ccccc3)ccc2c1O [Compound 1]	–	–	0.71	–
